Experimental data taken from US12233073B2, “Skin care formulations and skin cancer treatment” (Regents of the University of Minnesota, priority 2017, dated 2025).
Where two headings read alike, the source gives them in different places.

Experiments:
[1] = tested on: SSL-induced skin tumors in SKH-1 hairless mice
Protocol: The effectiveness of different candidate compounds in preventing sUV-induced cancer was evaluated. SKH-1 hairless mice (Charles River, Burlington, Massachusetts) were treated with formulations including one or more candidate compounds and exposed to SSL (solar simulated light). Female mice aged 5-6 weeks at the beginning of the study were used. The mice were exposed to SSL three times a week for 15 weeks from the beginning of the study. At week 1, the SSL dose included 37 kJ/m^2 UVA and 1.8 kJ/m^2 UVB three times per week. […] At week 6, the dose included 60 kJ/m^2 UVA and 2.9 kJ/m^2 UVB and this dose was maintained until week 15 at which time SSL exposure was stopped. Each mouse received a topical application (on the dorsal skin surface posterior to the base of the neck and anterior to the base of the tail) of one or more candidate compounds in a base cream one hour before SSL exposure. 15 weeks onwards, the mice were no longer exposed to SSL but the topical application of cream with sunscreen compounds was continued until 30 weeks. Control mice received topical application of cream with sunscreen compounds but no SSL.
Tumors were counted by sight. The dimensions of each tumor were measured using a digital caliper. Tumor volume (mm^3) was determined as (length×width^2)×0.52, where the length and width were measured in mm. […] Average or total tumor volumes were compared between vehicle (cream)-treated mice exposed to SSL and compound in cream-treated mice exposed to SSL.

[2] = tested on: skin of SKH-1 hairless mice; experiment: H&E staining of skin of mice treated with anti-sUV agents; type: in vivo, mouse; details: solar UV-exposed groups G13-G24
Text: FIG. 40 is a photograph comparing H&E (hematoxylin and eosin) stained tissue sample of mice exposed to solar ultraviolet and treated with anti-sUV agents and mice unexposed to solar ultraviolet. H&E staining can show skin damage (see TABLE 5 for group identification). […] None of the compounds in the absence of solar UV caused any damage and none had any adverse effect on skin thickness. G11 and G12 are the positive controls, being groups treated with solar UV without or with vehicle (cream).

Ki-67 = Ki-67 immunohistological staining of skin of mice treated with anti-sUV agents; type: in vivo, mouse; details: solar UV-exposed groups
Text: FIG. 41 is a photograph comparing Ki-67 immunohistological-stained tissue samples of mice exposed to solar ultraviolet and treated with anti-sUV agents and mice unexposed to solar ultraviolet.

[3] = following one hour of exposure to sunlight; cited from earlier work
[4] = SSL-exposed, compound in cream, percent per TABLE 5
[5] = SSL-exposed, compound in cream, percent per TABLE 5, 15 mice
[6] = female, SKH-1 hairless, mouse, in vivo, 30 weeks
[7] = no SSL exposure, compound in cream, percent per TABLE 5

COc1ccc(C(=O)c2ccccc2)c(O)c1 [Oxybenzone]
% Effective Protection (% reduction in tumor volume vs SSL with cream only) [1, 4]: 91.2% | % Mice with tumor [1, 5]: 86.7% | % Mortality [1, 5]: 6.7% | Average volume of tumors [1, 5]: 14.3 mm^3 | Avg. no. of tumors [1, 5]: 2.3 | Number of dead mice [1, 5]: 1 | Total no. of tumors [1, 5]: 35 | Total volume of tumors [1, 5]: 213.7 mm^3 | % Mice with tumor [1, 6]: 0% | % Mortality/Number of dead mice [1, 7]: 0 | Total/Average volume of tumors [1, 7]: 0 | Total/Avg. no. of tumors [1, 7]: 0 | H&E staining: epidermal thickening and skin damage [2]: epidermal thickening but less damage

CC1CC(OC(=O)c2ccccc2O)CC(C)(C)C1 (centres unmarked) [Homosalate]
% Effective Protection (% reduction in tumor volume vs SSL with cream only) [1, 4]: 83.6% | % Mice with tumor [1, 5]: 80% | % Mortality [1, 5]: 6.7% | Average volume of tumors [1, 5]: 27.7 mm^3 | Avg. no. of tumors [1, 5]: 2.6 | Number of dead mice [1, 5]: 1 | Total no. of tumors [1, 5]: 39 | Total volume of tumors [1, 5]: 415.7 mm^3 | % Mice with tumor [1, 6]: 0% | % Mortality/Number of dead mice [1, 7]: 0 | Total/Average volume of tumors [1, 7]: 0 | Total/Avg. no. of tumors [1, 7]: 0 | H&E staining: epidermal thickening and skin damage [2]: intense damage | Ki-67 staining: abnormal cell proliferation (Ki-67): extensive abnormal proliferation

CCCCC(CC)COC(=O)C=Cc1ccc(OC)cc1 (centres unmarked) [Octinoxate]
% Effective Protection (% reduction in tumor volume vs SSL with cream only) [1, 4]: 93.9% | % Mice with tumor [1, 5]: 80% | % Mortality [1, 5]: 13.3% | Average volume of tumors [1, 5]: 10.4 mm^3 | Avg. no. of tumors [1, 5]: 1.4 | Number of dead mice [1, 5]: 2 | Total no. of tumors [1, 5]: 21 | Total volume of tumors [1, 5]: 156.02 mm^3 | % Mice with tumor [1, 6]: 0% | % Mortality/Number of dead mice [1, 7]: 0 | Total/Average volume of tumors [1, 7]: 0 | Total/Avg. no. of tumors [1, 7]: 0 | H&E staining: epidermal thickening and skin damage [2]: epidermal thickening but less damage

CCCCC(CC)COC(=O)c1ccccc1O (centres unmarked) [Octisalate]
% Effective Protection (% reduction in tumor volume vs SSL with cream only) [1, 4]: 70.1% | % Mice with tumor [1, 5]: 100% | % Mortality [1, 5]: 66.7% | Average volume of tumors [1, 5]: 50.6 mm^3 | Avg. no. of tumors [1, 5]: 2.6 | Number of dead mice [1, 5]: 10 | Total no. of tumors [1, 5]: 39 | Total volume of tumors [1, 5]: 758.4 mm^3 | % Mice with tumor [1, 6]: 0% | % Mortality/Number of dead mice [1, 7]: 0 | Total/Average volume of tumors [1, 7]: 0 | Total/Avg. no. of tumors [1, 7]: 0 | H&E staining: epidermal thickening and skin damage [2]: epidermal thickening and skin damage

Titanium dioxide
% Effective Protection (% reduction in tumor volume vs SSL with cream only) [1, 4]: 89.2% | % Mice with tumor [1, 5]: 100% | % Mortality [1, 5]: 13.3% | Average volume of tumors [1, 5]: 18.4 mm^3 | Avg. no. of tumors [1, 5]: 2.6 | Number of dead mice [1, 5]: 2 | Total no. of tumors [1, 5]: 39 | Total volume of tumors [1, 5]: 275.6 mm^3 | % Mice with tumor ([1]; mouse, in vivo): 0% | % Mortality/Number of dead mice [1, 7]: 0 | Total/Average volume of tumors [1, 7]: 0 | Total/Avg. no. of tumors [1, 7]: 0 | H&E staining: epidermal thickening and skin damage [2]: epidermal thickening and skin damage

CCCCC(CC)COC(=O)C(C#N)=C(c1ccccc1)c1ccccc1 (centres unmarked) [Octocrylene]
% Effective Protection (% reduction in tumor volume vs SSL with cream only) [1, 4]: 90.3% | % Mice with tumor [1, 5]: 66.7% | % Mortality [1, 5]: 0/0% | Average volume of tumors [1, 5]: 16.5 mm^3 | Avg. no. of tumors [1, 5]: 1.7 | Number of dead mice [1, 5]: 0/0 | Total no. of tumors [1, 5]: 25 | Total volume of tumors [1, 5]: 246.7 mm^3 | % Mice with tumor [1, 6]: 0% | % Mortality/Number of dead mice [1, 7]: 0 | Total/Average volume of tumors [1, 7]: 0 | Total/Avg. no. of tumors [1, 7]: 0 | H&E staining: epidermal thickening and skin damage [2]: epidermal thickening and skin damage

[O]=[Zn] [Zinc oxide]
% Mice with tumor [1, 5]: 6.7% | % Mortality [1, 5]: 0/0% | Average volume of tumors [1, 5]: 0.8 mm^3 | Avg. no. of tumors [1, 5]: 0.13 | Number of dead mice [1, 5]: 0/0 | Total no. of tumors [1, 5]: 2 | Total volume of tumors [1, 5]: 11.2 mm^3 | % Mortality/Number of dead mice [1, 7]: 0 | Total/Average volume of tumors [1, 7]: 0 | Total/Avg. no. of tumors [1, 7]: 0 | % Mice with tumor ([1]; no SSL exposure, compound in cream, percent per TABLE 5, 30 weeks): 0% | H&E staining: epidermal thickening and skin damage [2]: most protected | Ki-67 staining: abnormal cell proliferation (Ki-67): least amount of abnormal proliferation

COc1ccc(C(=O)CC(=O)c2ccc(C(C)(C)C)cc2)cc1 [Avobenzone]
% Effective Protection (% reduction in tumor volume vs SSL with cream only) [1, 4]: 72.8% | % Mice with tumor [1, 5]: 93.3% | % Mortality [1, 5]: 6.7% | Average volume of tumors [1, 5]: 46.1 mm^3 | Avg. no. of tumors [1, 5]: 3.7 | Number of dead mice [1, 5]: 1 | Total no. of tumors [1, 5]: 55 | Total volume of tumors [1, 5]: 691.5 mm^3 | % Mice with tumor [1, 6]: 0% | % Mortality/Number of dead mice [1, 7]: 0 | Total/Average volume of tumors [1, 7]: 0 | Total/Avg. no. of tumors [1, 7]: 0 | H&E staining: epidermal thickening and skin damage [2]: epidermal thickening and skin damage | Ki-67 staining: abnormal cell proliferation (Ki-67): extensive abnormal proliferation | change in UV absorbance [3]: approximately 36%
